From US9241951B2, “Of gastrointestinal health, immunity and performance by dietary intervention” (BIOATLANTIS LTD, priority 2009, dated 2016)

Assays:
[1] = Pig performance post weaning with LAM and FUC, Example 4; type: in vivo; details: for ADG: days 14-21
From the text: (§1) One hundred and ninety two piglets were weaned at twenty four days of age, with an initial live weight of 6.4±0.785 Kg and assigned to one of four dietary treatments or 21 days post weaning. The dietary treatments consisted of (T1) basal diet, (T2) basal diet with 300 ppm LAM, (T3) basal diet with 236 ppm FUC, (T4) Basal diet with 300 ppm LAM and 236 ppm FUC. Diets were formulated to have identical concentrations of digestible energy (DE) (16 MJ/Kg) and ileal digestible lysine (14 g/Kg). All amino acid requirements were met relative to lysine (Close, 1994). Chromium III oxide was added to the diets for determination of nutrient digestibility. The LAM and FUC were derived from Laminaria hyperborea.
(§2) Piglets were housed in groups of 4 and offered feed twice daily. Water was supplied ad-libitum. Any pig displaying symptoms of illness was treated appropriately and recorded. Pigs were weighed on day 0 (day of weaning), 7, 14 and 21. Feed intake was monitored weekly. Fresh faecal samples were taken on day 10 and were analysed for E. coli and Lactobacilli concentrations. Faeces samples were collected from each pen on day 12-17 and were retained for chemical analysis. Fresh faecal samples were removed on day 14 and were frozen and retained for volatile fatty acid analysis. Fresh faecal samples were taken on day 17 for pH determination.

[2] = test system: Lactobacilli; test: Faecal microbiology, Example 4; type: in vivo, pig
From the text: as §1, §2
A sample was serially diluted (1:10) in 9.0 ml aliquots of maximum recovery diluent (MRD, Oxoid, Basingstoke, UK), and spread plated (0.1 ml aliquots) onto selective agars. Lactobacillus spp. were isolated on de Man, Rogosa, Sharp agar (MRS, Oxoid) with overnight incubation at 37° C. in 5% CO2. The API 50 CHL (BioMerieux, France) kit was used to confirm suspect Lactobacilli spp. E. coli species were isolated on MacConkey agar (Oxoid), following aerobic incubation at 37° C. for 18-24 hours. Suspect colonies were confirmed with API 20E (BioMerieux, France).

[3] = Piglet performance with lactose and SWE, Example 3; type: in vivo, pig
[4] = Coefficient of total tract apparent digestibility, Example 3; type: in vivo, pig; details: SWE − or +
[5] = test system: Lactobacilli; test: Faecal microbiology, Example 3; type: in vivo, pig; details: SWE − or +
Method: (§3) This experiment was carried out over two consecutive periods of 25 days. 240 piglets were selected after weaning at 24 days and assigned to one of four dietary treatments. Pigs in period 1 and 2 had initial live weights of 7.2 Kg and 7.8 Kg (±0.9 Kg), respectively. This experiment was designed as a 2×2 factorial. During the experiment (days 0-25) piglets were offered the following diets: (T1) 150 g/Kg lactose; (T2) 150 g/Kg lactose+SWE; (T3) 250 g/Kg lactose (T4) 250 g/Kg lactose+SWE. SWE was included at 2.8 g/Kg and derived from Laminaria digitata. It contained laminarin (112 g/Kg), fucoidan (89 g/Kg) and ash (799 g/Kg).
(§4) Pigs were housed in groups of 4 (n=15/treatment) and weighed at weaning (day 0), day 7, 14 and 25. Pigs were fed ad libitum. Fresh faecal samples were collected on days 10 to 15 for determination of nutrient digestibility and VFA analysis. Fresh faecal samples were collected on day 10 for enumeration of E. coli and Lactobacilli (O'Connell et al., 2005).
(§5) 1 g of faecal sample was serially diluted in maximum recovery diluent (MRD; Oxoid, Basingstoke, UK) and plated on selective agars. Lactobacillus spp. were isolated on de Man Rogosa Sharp agar (MRS, Oxoid). The API 50 CHL (BioMerieux, France) kit was used to confirm suspect Lactobacilli spp. E. coli species were isolated on MacConkey agar (Oxoid). Suspect colonies were confirmed with API 20E (BioMerieux, France).

[6] = test system: Escherichia coli; test: Faecal microbiology, Example 3; type: in vivo, pig; details: SWE − or +
Method: as §3, §4, §5

[7] = Day 0-7, diet with 150 g/Kg lactose, SWE 2.8 g/Kg where included
[8] = Day 0-7, diet with 250 g/Kg lactose, SWE 2.8 g/Kg where included
[9] = Day 0-25, diet with 150 g/Kg lactose, SWE 2.8 g/Kg where included
[10] = Day 0-25, diet with 250 g/Kg lactose, SWE 2.8 g/Kg where included
[11] = Day 7-14, diet with 150 g/Kg lactose, SWE 2.8 g/Kg where included
[12] = Day 7-14, diet with 250 g/Kg lactose, SWE 2.8 g/Kg where included
[13] = Day 14-25, diet with 150 g/Kg lactose, SWE 2.8 g/Kg where included
[14] = Day 14-25, diet with 250 g/Kg lactose, SWE 2.8 g/Kg where included

Molecule: fucoidan
- ADG ([1]; FUC added to a LAM diet): no effect
- ADG ([1]; FUC diet (236 ppm) compared to basal diet): significantly higher
- average daily feed intake ([1]; weaned pigs, 21 days, LAM 300 ppm, FUC 236 ppm): no effect
- faecal Lactobacilli numbers ([2]; FUC diet (236 ppm) v basal diet (8.93)): 9.22
- faecal lactobacilli populations ([2]; FUC included with LAM): no effect

Molecule: OC[C@H]1O[C@@H](O[C@H]2[C@H](O)[C@@H](O)C(O)O[C@@H]2CO)[C@H](O)[C@@H](O)[C@H]1O (stereo partly drawn) [Lactose, lactose]
- Average Daily Gain (ADG) ([3]; Day 0-7, diet with 150 g/Kg lactose, SWE 2.8 g/Kg (L. digitata) where included): 0.100 kg/day
- Average Daily Feed Intake (ADFI) [3, 7]: 0.242 kg/day
- Gain: Feed ratio [3, 7]: 0.413 Kg/Kg
- Average Daily Gain (ADG) ([3]; Day 0-7, diet with 250 g/Kg lactose, SWE 2.8 g/Kg (L. digitata) where included): 0.146 kg/day
- Average Daily Feed Intake (ADFI) [3, 8]: 0.239 kg/day
- Gain: Feed ratio [3, 8]: 0.589 Kg/Kg
- Average Daily Feed Intake (ADFI) [3, 9]: 0.446 kg/day
- Average Daily Gain (ADG) [3, 9]: 0.275 kg/day
- Gain: Feed ratio [3, 9]: 0.603 Kg/Kg
- Average Daily Feed Intake (ADFI) [3, 10]: 0.458 kg/day
- Average Daily Gain (ADG) [3, 10]: 0.287 kg/day
- Gain: Feed ratio [3, 10]: 0.619 Kg/Kg
- Average Daily Feed Intake (ADFI) [3, 11]: 0.415 kg/day
- Average Daily Gain (ADG) [3, 11]: 0.302 kg/day
- Gain: Feed ratio [3, 11]: 0.747 Kg/Kg
- Average Daily Feed Intake (ADFI) [3, 12]: 0.450 kg/day
- Average Daily Gain (ADG) [3, 12]: 0.325 kg/day
- Gain: Feed ratio [3, 12]: 0.729 Kg/Kg
- Average Daily Feed Intake (ADFI) [3, 13]: 0.682 kg/day
- Average Daily Gain (ADG) [3, 13]: 0.438 kg/day
- Gain: Feed ratio [3, 13]: 0.633 Kg/Kg
- Average Daily Feed Intake (ADFI) [3, 14]: 0.683 kg/day
- Average Daily Gain (ADG) [3, 14]: 0.388 kg/day
- Gain: Feed ratio [3, 14]: 0.569 Kg/Kg
- Digestibility Ash ([4]; diet Lactose 150 g/Kg): 53.30%
- Digestibility DM ([4]; diet Lactose 150 g/Kg): 87.75%
- Digestibility GE ([4]; diet Lactose 150 g/Kg): 85.93%
- Digestibility N ([4]; diet Lactose 150 g/Kg): 83.69%
- Digestibility NDF ([4]; diet Lactose 150 g/Kg): 37.55%
- Digestibility OM ([4]; diet Lactose 150 g/Kg): 89.16%
- Digestibility Ash ([4]; diet Lactose 250 g/Kg): 72.80%
- Digestibility DM ([4]; diet Lactose 250 g/Kg): 91.34%
- Digestibility GE ([4]; diet Lactose 250 g/Kg): 90.22%
- Digestibility N ([4]; diet Lactose 250 g/Kg): 86.86%
- Digestibility NDF ([4]; diet Lactose 250 g/Kg): 61.91%
- Digestibility OM ([4]; diet Lactose 250 g/Kg): 92.24%
- Bacterial populations Lactobacilli ([5]; diet Lactose 150 g/Kg): 8.46 Log10 CFU/g faeces
- Bacterial populations Lactobacilli ([5]; diet Lactose 250 g/Kg): 8.19 Log10 CFU/g faeces
- Bacterial populations Escherichia coli ([6]; diet Lactose 150 g/Kg): 6.30 Log10 CFU/g faeces
- Bacterial populations Escherichia coli ([6]; diet Lactose 250 g/Kg): 5.70 Log10 CFU/g faeces
